Laboratory results taken from patent US20260216172A1, “COMPOUNDS AND METHOD FOR TREATING HIV INFECTION” (The United States of America, as represented by the …, priority 2023, published 2026).
Like-named read-outs stand apart in the source and are kept apart here.

Assays:
[1] = Cytotoxicity in PBMCs (XTT); type: cell-based; settings: human, PHA-P stimulated PBMCs pooled from three donors, read-out: TC50
Procedure: (§1) (b) Anti-HIV-1 Cytoprotection Assay in PBMCs: PHA-P stimulated PBMCs from three donors were pooled together and re-suspended in fresh tissue culture medium at 1×10^6 cells/ml and plated in the interior wells of a 96 well round bottom microplate at 50 μL/well. A 100 μL volume of 2× concentrations of compound-containing media were transferred to the round-bottom 96-well plate containing the cells in triplicate. Fifty microliters (50 μL) of HIV-1 at a pre-determined dilution was added. Each plate contained cell control wells and virus control wells in parallel with the experimental wells. After 7 days in culture, efficacy was evaluated by measuring the reverse transcriptase in the culture supernatants and the cells were stained with the tetrazolium dye XTT to evaluate cytotoxicity.
as §1, with “This Example illustrates anti-HIV cytoprotection provided by compounds” for “(b) Anti-HIV-1 Cytoprotection Assay”, “accordance with another aspect of the invention, namely in PBMCs.” for “PBMCs:”

HIV-192RW009 = assay: Anti-HIV-1 cytoprotection assay in PBMCs (reverse transcriptase in supernatant); type: cell-based; settings: Human immunodeficiency virus 1, 168 h; PBMC, HIV-192RW009, 7 days
Procedure: as §1

HIV-1RF = assay: Anti-HIV cytoprotection evaluation in CEM-SS cells (CPE inhibition, XTT); type: cell-based; settings: Human immunodeficiency virus 1, 144 h, 6 days
Procedure: (§2) (a) Anti-HIV Cytoprotection Evaluation: Inhibition of virus-induced cytopathic effects (CPE) and cell viability following HIV replication in CEM-SS cells were measured by the use of XTT tetrazolium dye. CEM-SS cells (2.5×10^3 cells per well) were seeded in 96-well U-bottomed tissue culture plates in RPMI medium supplemented with 10% FBS, 2 mM L-glutamine, 100 U/ml penicillin and 100 μg/ml streptomycin. Serially diluted compounds (6 concentrations) and HIV-1RF diluted to a pre-determined titer to yield 85 to 95% cell killing at 6 days post-infection were be added to the plate. AZT was evaluated in parallel as a positive control. Following incubation at 37° C., 5% CO2 for six days, cell viability was measured by XTT staining. The optical density of the cell culture plate will be determined spectrophotometrically at 450 and 650 nm using Softmax Pro 4.6 software. Percent CPE reduction of the virus-infected wells and the percent cell viability of uninfected drug control wells was calculated to define the EC50, TC50 and therapeutic index (TI50) using Microsoft Excel Xlfit4.
as §2, with “Inhibition” for “(a) Anti-HIV Cytoprotection Evaluation: Inhibition”, “by” for “by the use of”, “wells were” for “wells was”

[2] = Cell viability of uninfected drug control wells, CEM-SS cells (XTT); type: cell-based; settings: human, read-out: TC50
Procedure: as §2
as §2, with “Inhibition” for “(a) Anti-HIV Cytoprotection Evaluation: Inhibition”, “by” for “by the use of”, “wells were” for “wells was”

[3] = Pharmacokinetic study in male CD-1 mice; type: in vivo; settings: for AUC0-inf: 5 mg/kg; for AUC0-inf / AUC(0-t) / Cmax / MRT inf / Tmax / half-life / tlast: 18 and 19 measured as metabolites
Procedure: Male CD-1 mice weighing between […] were dosed via orbital sinus injection and blood was collected via submandibular vein. IV dosing solutions were prepared in DMSO:PEG400:Saline (5:35:60, v/v/v) at 1 mg/mL concentration of the prodrug. Blood samples (50 μL each time point) were obtained via Culex at predetermined time points (0, 5, 15, 30, 60, 120, 240, 360, 480 and 1440 min) after dosing. Plasma was obtained by centrifugation within 30 minutes after collection and aliquots of dosing solutions were taken and analyzed at the same time with plasma samples using a validated LC-MS/MS method developed on a Shimadzu HPLC system interfaced to a Sciex QTRAP 5500 mass spectrometer. Eluents were gradient mixtures of water and acetonitrile with 0.10% formic acid. HPLC column was ACE 5 C8, 50×2.1 mm, […]. PK parameters of the analytes were obtained using Phoenix®, WinNonlin® software (version 8.1).
The study was performed in male CD-1 mice to assess pharmacokinetics (PK) of prodrug 17 and its metabolites 18 and 19.

HIV-1 CMU08 (E) = assay: Anti-HIV-1 cytoprotection assay in PBMCs, isolate CMU08 (E); type: cell-based; settings: Human immunodeficiency virus 1, PBMC, CXCR4
Procedure: as §1, with “This Example illustrates anti-HIV cytoprotection provided by compounds” for “(b) Anti-HIV-1 Cytoprotection Assay”, “accordance with another aspect of the invention, namely in PBMCs.” for “PBMCs:”

PBMCs = assay: Cytotoxicity in PBMCs (XTT); type: cell-based; settings: PBMCs, read-out: TC50 (the source's name)
Procedure: as §1
as §1, with “This Example illustrates anti-HIV cytoprotection provided by compounds” for “(b) Anti-HIV-1 Cytoprotection Assay”, “accordance with another aspect of the invention, namely in PBMCs.” for “PBMCs:”

HIV-1 RU132 (G) = assay: Anti-HIV-1 cytoprotection assay in PBMCs, isolate RU132 (G); type: cell-based; settings: Human immunodeficiency virus 1, CCR5
Procedure: as §1, with “This Example illustrates anti-HIV cytoprotection provided by compounds” for “(b) Anti-HIV-1 Cytoprotection Assay”, “accordance with another aspect of the invention, namely in PBMCs.” for “PBMCs:”

HIV-1 RW92009 (A) = assay: Anti-HIV-1 cytoprotection assay in PBMCs, isolate RW92009 (A); type: cell-based; settings: Human immunodeficiency virus 1, PBMC, CXCR4/CCR5
Procedure: as §1, with “This Example illustrates anti-HIV cytoprotection provided by compounds” for “(b) Anti-HIV-1 Cytoprotection Assay”, “accordance with another aspect of the invention, namely in PBMCs.” for “PBMCs:”

HIV-1 BCF01 (O) = assay: Anti-HIV-1 cytoprotection assay in PBMCs, isolate BCF01 (O); type: cell-based; settings: Human immunodeficiency virus 1, CCR5
Procedure: as §1, with “This Example illustrates anti-HIV cytoprotection provided by compounds” for “(b) Anti-HIV-1 Cytoprotection Assay”, “accordance with another aspect of the invention, namely in PBMCs.” for “PBMCs:”

HIV-1 BR93020 (F) = assay: Anti-HIV-1 cytoprotection assay in PBMCs, isolate BR93020 (F); type: cell-based; settings: Human immunodeficiency virus 1, CCR5
Procedure: as §1, with “This Example illustrates anti-HIV cytoprotection provided by compounds” for “(b) Anti-HIV-1 Cytoprotection Assay”, “accordance with another aspect of the invention, namely in PBMCs.” for “PBMCs:”

HIV-1 ZA97009 (C) = assay: Anti-HIV-1 cytoprotection assay in PBMCs, isolate ZA97009 (C); type: cell-based; settings: Human immunodeficiency virus 1, CCR5
Procedure: as §1, with “This Example illustrates anti-HIV cytoprotection provided by compounds” for “(b) Anti-HIV-1 Cytoprotection Assay”, “accordance with another aspect of the invention, namely in PBMCs.” for “PBMCs:”

HIV-1 UG92001 (D) = assay: Anti-HIV-1 cytoprotection assay in PBMCs, isolate UG92001 (D); type: cell-based; settings: Human immunodeficiency virus 1, PBMC, CXCR4/CCR5
Procedure: as §1, with “This Example illustrates anti-HIV cytoprotection provided by compounds” for “(b) Anti-HIV-1 Cytoprotection Assay”, “accordance with another aspect of the invention, namely in PBMCs.” for “PBMCs:”

HIV-1 HT92599 (B) = assay: Anti-HIV-1 cytoprotection assay in PBMCs, isolate HT92599 (B); type: cell-based; settings: Human immunodeficiency virus 1, PBMC, CXCR4
Procedure: as §1, with “This Example illustrates anti-HIV cytoprotection provided by compounds” for “(b) Anti-HIV-1 Cytoprotection Assay”, “accordance with another aspect of the invention, namely in PBMCs.” for “PBMCs:”

[4] = system: simian immunodeficiency virus (SIV); settings: SAMT-247 in combination with ΔV1DNA-ALVAC/gp120/alum vaccine; Rahman et al., Nature Microbiology 8; cited from earlier work
[5] = PBMC, HIV-192RW009, 7 days, XTT
[6] = male, CD-1, mouse, in vivo, iv, single IV bolus 5 mg/kg of compound 17, male CD-1 mice, plasma, read-out: AUC0-inf
[7] = mouse, in vivo, single IV bolus 5 mg/kg of compound 17, male CD-1 mice, plasma
[8] = single IV bolus 5 mg/kg of compound 17, male CD-1 mice, plasma

## CCCC(=O)OCSc1ccccc1C(=O)NCCn1ccc(=O)c2cc(F)ccc21 [Compound 1, ((2-((2-(6-fluoro-4-oxoquinolin-1(4H)-yl)ethyl)carbamoyl)phenyl)thio)methyl butyrate]
[1]; [5]
  CC50 at 7 days: > 100 µM
HIV-192RW009
  EC50: 2480 nM
HIV-1RF
  EC50: 560 nM
[2]
  CC50 at 6 days: 56.2 µM

## Cn1cnc([N+](=O)[O-])c1Sc1ccccc1C(=O)NCCn1ccc(=O)c2cc3c(cc21)OCO3 [Compound 3, 2-((1-methyl-4-nitro-1H-imidazol-5-yl)thio)-N-(2-(8-oxo-[1,3]dioxolo[4,5-g]quinolin-5(8H)-yl)ethyl)benzamide]
[1]; [5]
  CC50 at 7 days: > 100 µM
HIV-192RW009
  EC50: 17700 nM

## Cc1cccc(CNC(=O)c2cn(CCNC(=O)c3ccccc3Sc3c([N+](=O)[O-])ncn3C)c3cc4c(cc3c2=O)OC(F)(F)O4)n1 [Compound 18, 2,2-difluoro-5-(2-(2-((1-methyl-4-nitro-1H-imidazol-5-yl)thio)benzamido)ethyl)-N-((6-methylpyridin-2-yl)methyl)-8-oxo-5,8-dihydro-[1,3]dioxolo[4,5-g]quinoline-7-carboxamide]
[3]; [6]
  AUC0-inf: 42.5 ng·h/mL
[3]; metabolite versus 17 after single IV bolus 5 mg/kg of 17, male mice
  Exposure (AUC0-t) lower than that of 17: approximately 17 fold
[3]; [7]
  AUC(0-t): 34.8 ng·h/mL
  Cmax: 75.6 ng/mL
  MRT inf: 3.73 h
  Tmax: 4.98 min
  half-life: 164 min
[3]; [8]
  tlast: 8.00 h
  AUC0-inf: 34.8 ng·h/mL

## Cc1cccc(CNC(=O)c2cn(CCNC(=O)c3ccccc3Sc3c([N+](=O)[O-])ncn3C)c3cc4c(cc3c2=O)OCO4)n1 [Compound 6, 5-(2-(2-((1-methyl-4-nitro-1H-imidazol-5-yl)thio)benzamido)ethyl)-N-((6-methylpyridin-2-yl)methyl)-8-oxo-5,8-dihydro-[1,3]dioxolo[4,5-g]quinoline-7-carboxamide]
[1]; [5]
  CC50 at 7 days: > 100 µM
HIV-192RW009
  EC50: 30900 nM

## CCCC(=O)OCSc1ccccc1C(=O)NCCn1cc(C(=O)NCc2cccc(C)n2)c(=O)c2cc3c(cc21)OC(F)(F)O3 [Compound 17, ((2-((2-(2,2-difluoro-7-(((6-methylpyridin-2-yl)methyl)carbamoyl)-8-oxo-[1,3]dioxolo[4,5-g]quinolin-5(8H)-yl)ethyl)carbamoyl)phenyl)thio)methyl butyrate]
HIV-1 CMU08 (E)
  EC50: 5.23 µM
PBMCs; line of isolate BCF01 (O)
  CC50: > 100 µM
PBMCs; line of isolate BR93020 (F)
  CC50: > 100 µM
PBMCs; line of isolate HT92599 (B)
  CC50: > 100 µM
PBMCs; line of isolate RU132 (G)
  CC50: > 100 µM
PBMCs; line of isolate RW92009 (A)
  CC50: > 100 µM
PBMCs; line of isolate UG92001 (D)
  CC50: > 100 µM
PBMCs; line of isolate ZA97009 (C)
  CC50: > 100 µM
[1]; PBMCs, line of isolate CMU08 (E)
  CC50 at 7 days: > 100 µM
HIV-1 RU132 (G)
  EC50: 6.85 µM
HIV-1 RW92009 (A)
  EC50: 4.26 µM
[3]; mouse, in vivo, single IV bolus 5 mg/kg of compound 17, male CD-1 mice
  clearance: 136 mL/min/kg
[3]; [7]
  C0: 1910 ng/mL
[3]; mouse, in vivo, single IV bolus 5 mg/kg of compound 17, male CD-1 mice, read-out: Vss
  Vd: 9.6 L/kg
[3]; [8]
  tlast: 8.00 h
HIV-1 BCF01 (O)
  EC50: 7.79 µM
HIV-1 BR93020 (F)
  EC50: 2010 nM
HIV-1 ZA97009 (C)
  EC50: 10.7 µM
HIV-1 UG92001 (D)
  EC50: 5.14 µM
HIV-1RF
  EC50: 1480 nM
[2]
  CC50 at 6 days: > 100 µM
HIV-1 HT92599 (B)
  EC50: 6.52 µM

## CCCC(=O)OCSc1ccccc1C(=O)NCCn1cc(C(=O)NCc2cccc(C)n2)c(=O)c2cc3c(cc21)OCO3 [Compound 4, ((2-((2-(7-(((6-methylpyridin-2-yl)methyl)carbamoyl)-8-oxo-[1,3]dioxolo[4,5-g]quinolin-5(8H)-yl)ethyl)carbamoyl)phenyl)thio)methyl butyrate]
[1]; [5]
  CC50 at 7 days: > 100 µM
HIV-192RW009
  EC50: 1090 nM
HIV-1RF
  EC50: 480 nM
[2]
  CC50 at 6 days: > 100 µM

## CCCC(=O)OCSc1ccccc1C(=O)NCCn1cc(C(=O)NCc2ccccn2)c(=O)c2cc3c(cc21)OCO3 [Compound 5, ((2-((2-(8-oxo-7-((pyridin-2-ylmethyl)carbamoyl)-[1,3]dioxolo[4,5-g]quinolin-5(8H)-yl)ethyl)carbamoyl)phenyl)thio)methyl butyrate]
[1]; [5]
  CC50 at 7 days: > 100 µM
HIV-192RW009
  EC50: 910 nM
HIV-1RF
  EC50: 540 nM
[2]
  CC50 at 6 days: > 100 µM

## Cc1cccc(CNC(=O)c2cn(CCNC(=O)c3ccccc3S)c3cc4c(cc3c2=O)OC(F)(F)O4)n1 [Compound 19]
[3]; [6]
  AUC0-inf: 13.1 ng·h/mL
[3]; [7]
  AUC(0-t): 12.8 ng·h/mL
  Cmax: 46.9 ng/mL
  MRT inf: 0.33 h
  Tmax: 4.98 min
  half-life: 21 min
[3]; [8]
  tlast: 2.00 h
  AUC0-inf: 12.8 ng·h/mL

## CC(=O)Sc1ccccc1C(=O)NCCC(N)=O [SAMT-247, 3-(S-acetylthiosalicyloyl)aminopropamide or N-[2-ccetylthiobenzoyl]-β-alaninamide]
[4]
  female macaques protected against vaginal acquisition of SIV: 16 out of 20

## CCCC(=O)OCSc1ccccc1C(=O)NCCn1ccc(=O)c2cc3c(cc21)OCO3 [Compound 2, ((2-((2-(8-oxo-[1,3]dioxolo[4,5-g]quinolin-5(8H)-yl)ethyl)carbamoyl)phenyl)thio)methyl butyrate]
[1]; [5]
  CC50 at 7 days: > 100 µM
HIV-192RW009
  EC50: 480 nM
HIV-1RF
  EC50: 1150 nM
[2]
  CC50 at 6 days: 32.2 µM
